pIC50: −log10 of the molar value.
How the values were obtained:
JARID1B (h) = JARID1B (h) (Homo sapiens, UniProt Q9UGL1); test: Epigenetic enzyme assay, Demethylases (KDMs); assay type: biochemical; conditions: for inhibition at 10 µM: read-out: % Inhibition of Control Values
BRDT(1) (h) bromodomain = molecular target: T1, BRDT(1) (h) bromodomain (Homo sapiens, UniProt Q58F21); test: Epigenetic binding assay, Bromodomain; conditions: read-out: % Inhibition of Control Specific Binding
T1 construct: Bromodomain; Eurofins CEREP (France), contract laboratory

[1] = molecular target: T2, Nicotinamide N-methyltransferase (h) (Homo sapiens, UniProt P40261); test: Epigenetic enzyme assay, Small molecule methyltransferases; assay type: biochemical; conditions: read-out: % Inhibition of Control Values
T2 sequence (P40261 1-264): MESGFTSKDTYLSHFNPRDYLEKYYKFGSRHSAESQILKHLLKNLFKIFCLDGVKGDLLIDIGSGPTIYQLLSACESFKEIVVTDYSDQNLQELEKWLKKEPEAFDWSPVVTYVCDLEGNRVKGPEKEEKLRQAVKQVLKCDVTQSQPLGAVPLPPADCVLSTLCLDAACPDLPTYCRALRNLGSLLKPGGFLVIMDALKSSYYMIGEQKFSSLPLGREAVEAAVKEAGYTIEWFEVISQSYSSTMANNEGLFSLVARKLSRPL

H3K79 me2 = test: Cell-based detection methyl modifications; conditions: read-out: % Inhibition of Control Values
L3MBTL1 MBT domain = test: Epigenetic binding assay, MBT domain; conditions: 10 μM
5-Lipoxygenase = molecular target: T3, 5-Lipoxygenase (Homo sapiens, UniProt P09917); test: 5-Lipoxygenase; assay type: biochemical; conditions: for remaining activity at 10 µM: assay year 2015, read-out: % Control Response
T3 construct: host or cells: Insect Sf9 cells
T3 sequence (P09917 1-674): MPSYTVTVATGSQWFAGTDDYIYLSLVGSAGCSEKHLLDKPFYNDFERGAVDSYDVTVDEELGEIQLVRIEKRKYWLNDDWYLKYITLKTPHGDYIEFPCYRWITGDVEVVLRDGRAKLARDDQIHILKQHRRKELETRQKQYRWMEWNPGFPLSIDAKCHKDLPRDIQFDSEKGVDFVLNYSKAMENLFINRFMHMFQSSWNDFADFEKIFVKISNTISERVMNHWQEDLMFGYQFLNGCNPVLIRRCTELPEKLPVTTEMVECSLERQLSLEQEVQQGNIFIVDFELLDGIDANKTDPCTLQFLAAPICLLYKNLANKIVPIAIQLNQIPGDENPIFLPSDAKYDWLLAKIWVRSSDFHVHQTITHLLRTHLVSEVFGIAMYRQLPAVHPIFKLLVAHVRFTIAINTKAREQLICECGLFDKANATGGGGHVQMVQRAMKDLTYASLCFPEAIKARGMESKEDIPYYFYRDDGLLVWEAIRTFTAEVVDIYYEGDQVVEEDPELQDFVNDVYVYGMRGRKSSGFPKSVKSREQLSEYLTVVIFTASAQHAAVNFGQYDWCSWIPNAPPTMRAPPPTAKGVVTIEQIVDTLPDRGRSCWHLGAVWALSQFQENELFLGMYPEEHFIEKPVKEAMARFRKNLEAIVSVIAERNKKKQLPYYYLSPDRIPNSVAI

FALZ (h) bromodomain = molecular target: T4, FALZ (h) bromodomain (Homo sapiens, UniProt Q12830); test: Epigenetic binding assay, Bromodomain; conditions: 10 μM; read-out: % Inhibition of Control Specific Binding
T4 construct: Bromodomain; Eurofins CEREP (France), contract laboratory

JMJD2B (h) = molecular target: T5, JMJD2B (h) (Homo sapiens, UniProt O94953); test: Epigenetic enzyme assay, Demethylases (KDMs); assay type: biochemical; conditions: for inhibition at 10 µM: read-out: % Inhibition of Control Values
T5 sequence (O94953 1-1096): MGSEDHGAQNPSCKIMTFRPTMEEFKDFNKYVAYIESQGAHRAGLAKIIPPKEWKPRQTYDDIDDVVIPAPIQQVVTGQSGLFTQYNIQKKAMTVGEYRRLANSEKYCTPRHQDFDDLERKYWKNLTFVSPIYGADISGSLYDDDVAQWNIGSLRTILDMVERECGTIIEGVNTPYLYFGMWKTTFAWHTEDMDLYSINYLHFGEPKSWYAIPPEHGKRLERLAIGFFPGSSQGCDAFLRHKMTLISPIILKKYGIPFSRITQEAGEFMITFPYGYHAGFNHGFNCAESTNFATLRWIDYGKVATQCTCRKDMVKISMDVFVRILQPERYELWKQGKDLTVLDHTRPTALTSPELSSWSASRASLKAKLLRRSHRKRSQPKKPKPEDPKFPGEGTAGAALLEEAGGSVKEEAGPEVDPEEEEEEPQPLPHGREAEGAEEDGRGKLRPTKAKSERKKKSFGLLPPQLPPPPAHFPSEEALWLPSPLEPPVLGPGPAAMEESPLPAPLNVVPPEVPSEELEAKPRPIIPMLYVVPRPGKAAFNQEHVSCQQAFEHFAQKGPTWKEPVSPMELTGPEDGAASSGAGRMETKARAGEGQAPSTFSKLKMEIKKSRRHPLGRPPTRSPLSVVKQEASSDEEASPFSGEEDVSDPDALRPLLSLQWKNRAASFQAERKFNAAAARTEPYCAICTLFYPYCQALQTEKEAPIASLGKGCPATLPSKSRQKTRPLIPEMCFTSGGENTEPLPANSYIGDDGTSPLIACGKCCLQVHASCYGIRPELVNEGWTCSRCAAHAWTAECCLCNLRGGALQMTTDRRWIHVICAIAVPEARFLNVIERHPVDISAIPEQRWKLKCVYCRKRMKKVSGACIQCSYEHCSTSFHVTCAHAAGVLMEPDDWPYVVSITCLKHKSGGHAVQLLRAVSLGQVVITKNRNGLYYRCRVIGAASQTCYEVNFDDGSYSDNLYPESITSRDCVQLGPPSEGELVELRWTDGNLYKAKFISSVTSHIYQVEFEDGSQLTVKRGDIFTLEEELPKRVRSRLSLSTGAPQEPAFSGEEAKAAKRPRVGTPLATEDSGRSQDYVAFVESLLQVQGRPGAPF

BAZ2A (h) bromodomain = molecular target: T6, BAZ2A (h) bromodomain (Homo sapiens, UniProt Q9UIF9); test: Epigenetic binding assay, Bromodomain; conditions: read-out: % Inhibition of Control Specific Binding
T6 construct: Bromodomain
T6 sequence (Q9UIF9 1793-1897 limits assumed): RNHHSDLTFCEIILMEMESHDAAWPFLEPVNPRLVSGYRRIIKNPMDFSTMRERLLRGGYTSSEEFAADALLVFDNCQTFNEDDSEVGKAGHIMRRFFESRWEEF

[2] = molecular target: T7, Catechol O-methyltransferase (h) (Homo sapiens, UniProt P21964); test: Epigenetic enzyme assay, Small molecule methyltransferases; assay type: biochemical; conditions: read-out: % Inhibition of Control Values
T7 sequence (P21964 1-271): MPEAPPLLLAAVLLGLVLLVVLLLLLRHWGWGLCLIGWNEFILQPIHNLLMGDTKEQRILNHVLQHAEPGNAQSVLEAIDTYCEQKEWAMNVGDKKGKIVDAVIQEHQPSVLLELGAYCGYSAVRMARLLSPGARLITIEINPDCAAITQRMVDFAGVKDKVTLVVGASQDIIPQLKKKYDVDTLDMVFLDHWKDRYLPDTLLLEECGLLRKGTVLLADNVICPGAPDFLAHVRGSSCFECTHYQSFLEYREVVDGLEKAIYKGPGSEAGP

Chain of JARID1B (h) (Q9UGL1 whole entry): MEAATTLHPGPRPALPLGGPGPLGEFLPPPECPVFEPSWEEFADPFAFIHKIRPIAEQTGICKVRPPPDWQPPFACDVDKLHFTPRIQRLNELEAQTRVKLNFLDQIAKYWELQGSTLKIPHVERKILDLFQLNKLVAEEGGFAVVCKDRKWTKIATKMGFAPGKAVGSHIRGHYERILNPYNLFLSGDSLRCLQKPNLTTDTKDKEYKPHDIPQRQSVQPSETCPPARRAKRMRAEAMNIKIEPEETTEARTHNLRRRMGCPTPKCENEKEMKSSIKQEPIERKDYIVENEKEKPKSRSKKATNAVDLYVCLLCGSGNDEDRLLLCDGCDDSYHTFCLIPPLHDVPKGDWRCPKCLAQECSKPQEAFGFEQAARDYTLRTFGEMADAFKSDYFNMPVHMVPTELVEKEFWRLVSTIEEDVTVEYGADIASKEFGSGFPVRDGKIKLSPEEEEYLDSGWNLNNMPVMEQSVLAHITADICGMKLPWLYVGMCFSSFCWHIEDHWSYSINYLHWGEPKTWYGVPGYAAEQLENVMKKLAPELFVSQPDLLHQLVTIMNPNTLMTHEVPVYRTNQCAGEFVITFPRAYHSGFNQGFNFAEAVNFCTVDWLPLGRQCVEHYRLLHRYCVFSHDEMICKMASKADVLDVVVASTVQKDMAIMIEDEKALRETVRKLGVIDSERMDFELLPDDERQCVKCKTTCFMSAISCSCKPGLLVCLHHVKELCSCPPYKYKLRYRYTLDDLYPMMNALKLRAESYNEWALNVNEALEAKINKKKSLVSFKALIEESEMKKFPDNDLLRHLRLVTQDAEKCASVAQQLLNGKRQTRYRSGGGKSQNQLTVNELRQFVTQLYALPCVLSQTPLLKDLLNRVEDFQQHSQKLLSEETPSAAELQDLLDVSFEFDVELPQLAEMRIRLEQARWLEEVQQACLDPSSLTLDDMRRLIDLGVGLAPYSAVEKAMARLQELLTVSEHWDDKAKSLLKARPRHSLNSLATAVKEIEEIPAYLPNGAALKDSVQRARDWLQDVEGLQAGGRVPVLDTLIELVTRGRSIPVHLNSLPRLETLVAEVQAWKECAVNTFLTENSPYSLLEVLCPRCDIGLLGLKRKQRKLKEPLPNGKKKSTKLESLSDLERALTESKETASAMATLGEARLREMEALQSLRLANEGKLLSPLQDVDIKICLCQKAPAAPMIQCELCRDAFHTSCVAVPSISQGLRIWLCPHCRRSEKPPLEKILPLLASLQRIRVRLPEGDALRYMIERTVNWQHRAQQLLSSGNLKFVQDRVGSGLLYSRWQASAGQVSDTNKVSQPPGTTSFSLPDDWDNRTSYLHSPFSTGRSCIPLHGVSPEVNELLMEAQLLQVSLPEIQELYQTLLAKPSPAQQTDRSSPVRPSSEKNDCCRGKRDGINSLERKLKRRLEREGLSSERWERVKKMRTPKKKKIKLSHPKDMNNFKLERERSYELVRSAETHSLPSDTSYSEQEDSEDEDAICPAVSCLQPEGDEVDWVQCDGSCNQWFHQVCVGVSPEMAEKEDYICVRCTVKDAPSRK

Row | SMILES | % Inhibition of Control Values (JARID1B (h); 10 μM) | inhibition at 10 µM (JARID1B (h); 10 μM) [%] | pIC50 (JARID1B (h); Table 11, inhibition/concentration-response curve) | inhibition at 10 µM (BRDT(1) (h) bromodomain) [%] | inhibition at 10 µM [1] [%] | inhibition at 10 µM (H3K79 me2) [%] | % Inhibition of Control Specific Binding (L3MBTL1 MBT domain) [%] | remaining activity at 10 µM (5-Lipoxygenase) [%] | pIC50 (5-Lipoxygenase; concentration-response 10 to 0.01 μM) | inhibition at 10 µM (FALZ (h) bromodomain) [%] | % Inhibition of Control Values (JMJD2B (h); 10 μM) | inhibition at 10 µM (JMJD2B (h); 10 μM) [%] | pIC50 (JMJD2B (h); Table 11, inhibition/concentration-response curve, read-out: IC50) | inhibition at 10 µM (BAZ2A (h) bromodomain) [%] | inhibition at 10 µM [2] [%]
1 | CC(C)=CCC[C@H](CO)[C@@H]1CC[C@@H](C)c2c1cc(C)c(O)c2O [Compound 1, 7,8,18-trihydroxyserrulat-14-ene] | significant inhibitory activity | 70 | 5.44 | 43 | 13 | -2 | 41 | 79 | 5.64 | 42 | significant inhibitory activity | 65 | 4.92 | 56 | 6
2 | CC(C)=CCC[C@@H]1C(O)Oc2c(C)cc(O)c3c2[C@H]1CC[C@H]3C (some centres unmarked) [Compound 2, 5,18-epoxyserrulat-14-en-8,18-diol] | – | 6 | – | 23 | -2 | -16 | 61 | 53 | – | 18 | – | 16 | – | 17 | 1
3 | CC(C)=CCC[C@@H]1COc2c(C)cc(O)c3c2[C@H]1CC[C@H]3C [Compound 3, 5,18-epoxy-8-hydroxyserrulat-14-ene] | – | -2 | – | 29 | -2 | -5 | 59 | 67 | – | 5 | – | 8 | – | 16 | 0
